Reference: patent US11192900B2, “Substituted 1,6-dihydropyridinones and 1,2-dihydroisoquinolinones as bet inhibitors” (NUVATION BIO INC., priority 2018, dated 2021)
Where two headings read alike, the source gives them in different places.

Tests used:
[1] = system: 22Rv1 cells; experiment: 22Rv1 cell proliferation assay with wash-off or mock wash-off; type: cell-based, human; conditions: Homo sapiens
Procedure: A 22Rv1 cell proliferation assay was used to assess durability of test compound effects after transient exposure of test compound to cells. 22Rv1 cells were seeded at 3000 cells per well/100 μl in a 96-well plate and incubated with test compounds at specified dilutions for 2 hr at 37° C. and 5% CO2. Following the incubation, test compound was washed off and replacement culture medium without test compound was added. Wash-off was performed by three PBS washes. The cells were incubated for an additional 96 hr at 37° C. and 5% CO2. In parallel, a mock wash-off was performed with cells that were treated identically except that the replacement culture medium contained test compound. The plate was incubated for 4 hr at 37° C., 5% CO2 and fluorescence was measured using excitation and emission wavelengths of 535 and 590 nm, respectively. Cell viability data were plotted using GraphPad Prism (GraphPad Software, Inc., San Diego, Calif.). In addition, a nonlinear regression model with a sigmoidal dose response and variable slope within GraphPad Prism was used to calculate the IC50 value of individual test compounds.

[2] = system: MV-4-11; experiment: Cell viability assay (XTT); type: cell-based; conditions: Homo sapiens, MV4-11; MV-4-11, XTT, up to 72 hr
Procedure: (§1) A panel of BET-sensitive and insensitive cell lines were profiled for effect on cell viability using compound 3. Cells were cultured in the presence of inhibitors at various concentrations for up to 72 hr. For cell viability assays as previously described (Guo Y, et al. 2012. J Hematol Oncol 5:72; Chen Y, et al. 2016. Oncogene 35:2971-8), 0.08 mg/ml XTT (2,3-bis-(2-methoxy-4-nitro-5-sulfophenyl)-2H-tetrazolium-5-carboxanilide) and 8 μM phenazine methyl sulfate (PMS) were added to the cells at the end of the test compound or vehicle treatment duration, and absorbance at 450 nm was measured after 3 hr incubation at 37° C. Assays were performed in triplicates. IC50 values were estimated using a non-linear mixed effect model fitting a sigmoid curve to the experimental dose response data (Vis D J, et al. 2016. Pharmacogenomics 17(7):691-700).

[3] = system: THP-1; experiment: Cell viability assay (XTT); type: cell-based; conditions: Homo sapiens; THP-1, XTT, up to 72 hr
Procedure: as §1

[4] = system: OCI-LY18; experiment: Cell viability assay (XTT); type: cell-based; conditions: Homo sapiens, up to 72 hr
Procedure: as §1

[5] = system: U2973; experiment: Cell viability assay (XTT); type: cell-based; conditions: Homo sapiens, U-2973, up to 72 hr
Procedure: as §1

[6] = system: SET-2; experiment: Cell viability assay (XTT); type: cell-based; conditions: Homo sapiens; SET-2, XTT, up to 72 hr
Procedure: as §1

[7] = system: Jurkat; experiment: Cell viability assay (XTT); type: cell-based; conditions: Homo sapiens, up to 72 hr
Procedure: as §1

[8] = system: MEG-01; experiment: Cell viability assay (XTT); type: cell-based; conditions: Homo sapiens; MEG-01, XTT, up to 72 hr
Procedure: as §1

[9] = system: K562; experiment: Cell viability assay (XTT); type: cell-based; conditions: Homo sapiens, up to 72 hr
Procedure: as §1

[10] = system: HEL; experiment: Cell viability assay (XTT); type: cell-based; conditions: Homo sapiens, up to 72 hr
Procedure: as §1

[11] = system: Molt-4; experiment: Cell viability assay (XTT); type: cell-based; conditions: Homo sapiens; Molt-4, XTT, up to 72 hr
Procedure: as §1

[12] = system: IEC-6 rat intestinal epithelial cell line; experiment: IEC-6 cell viability, Protocol B (toxicity to non-cancerous cells); type: cell-based; conditions: Rattus norvegicus; IEC-6, 4000 cells per well, 48 hrs
Procedure: The effects of test compounds were also studied in the IEC-6 rat intestinal epithelial cell line to assess potential toxicity to non-cancerous cells. The cells were harvested during the logarithmic growth period and counted. In Protocol A, cells were seeded at a count of 3000 cells per well/100 μl in a 96-well plate. After seeding, cells were incubated at 37° C., 5% CO2 for 24 hr. Cells were treated with test compounds at 8 concentrations within a desired concentration range (e.g. 5 nM-10 μM) for generation of dose response curves by preparing serial dilutions of the test compound in DMSO which were further diluted with culture medium and then added to each well. The plate was further incubated for another 96 hrs in humidified incubator at 37° C. and 5% CO2. The assay was terminated by addition of resazurin (# R7017, Sigma). The plate was incubated for 4 hr at 37° C., 5% CO2 and fluorescence was measured using excitation and emission wavelengths of 535 and 590 nm, respectively. Cell viability data were plotted using GraphPad Prism (GraphPad Software, Inc., San Diego, Calif.). In addition, a nonlinear regression model with a sigmoidal dose response and variable slope within GraphPad Prism was used to calculate the IC50 value of individual test compounds. Protocol B was the same as Protocol A except that cells were seeded at a count of 4000 cells per well/100 μl in a 96-well plate, and the incubation with test compound was for 48 hrs instead of 96 hrs.

[13] = biological target: BRD2-1 (Homo sapiens (Human), UniProt P25440); experiment: Bromodomain and Extraterminal Domain (BET) Binding Assay
BRD2-1, sequence (P25440 74-180): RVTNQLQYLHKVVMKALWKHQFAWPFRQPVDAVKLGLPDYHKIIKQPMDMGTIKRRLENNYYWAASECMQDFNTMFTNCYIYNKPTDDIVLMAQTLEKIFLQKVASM
Procedure, shortened: (§2)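 AlphaScreen displacement of biotinylated H4 (1-21) K5/8/12/16Ac peptide, in 50 mM HEPES pH 7.5, 100 mM NaCl, 1 mg/ml BSA, 0.05% CHAPS, 0.5% DMSO. Protein-compound preincubation 30 min RT, then ligand 30 min, donor then acceptor beads 60 min dark. Inhibition versus plate controls; IC50 from 10-point titrations.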

[14] = biological target: BRDT-1 (Homo sapiens (Human), UniProt Q58F21); experiment: as above
Procedure, shortened: as §2

[15] = biological target: BRD3-1 (Homo sapiens (Human), UniProt Q15059); experiment: as above
BRD3-1, sequence (Q15059 34-140): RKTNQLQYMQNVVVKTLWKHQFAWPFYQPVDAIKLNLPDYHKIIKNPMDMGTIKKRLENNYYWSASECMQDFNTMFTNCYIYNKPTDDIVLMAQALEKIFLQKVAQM
Procedure, shortened: as §2

- IC50 [2]: 100 nM
- IC50 [3]: 250 nM
- IC50 [4]: 420 nM
- IC50 [7]: 6 µM
- IC50 [9]: 5 µM
- IC50 [11]: 300 nM
- IC50 [13]: 16 nM
- IC50 [14]: 31 nM
- IC50 [15]: 35 nM
SMILES: C=CS(=O)(=O)Nc1ccc(Oc2ccc(F)cc2F)c(-c2cc(NC)c(=O)n(C)c2)c1 [Compound 3, N-(4-(2,4-difluorophenoxy)-3-(1-methyl-5-(methylamino)-6-oxo-1,6-dihydropyridin-3-yl)phenyl)ethenesulfonamide]
- IC50 ([1]; 22Rv1, 2 hr exposure, three PBS washes, additional 96 hr without compound, read-out: Wash-off IC50): 96 nM
- IC50 ([1]; 22Rv1, 2 hr, replacement medium with test compound, additional 96 hr, read-out: Mock wash-off IC50): 342 nM
- IC50 [5]: 240 nM
- IC50 [6]: 90 nM
- IC50 [8]: 310 nM
- IC50 [10]: 400 nM
- IC50 [12]: 173 nM
